From publication PMC12670405, “Second-Generation AURKA-Targeting PROTACs: Structural Optimization toward in Vivo Degradation in Neuroblastoma” (Journal of Medicinal Chemistry, 2025)

Tests used:
Assay in all cases: KINOMEscan scanMAX
Type in all cases: binding
ABL1 = target: T1, ABL1 (Homo sapiens, UniProt P00519); settings: 1000 nM; read-out: Percent Control
T1 construct: purchased Eurofins Discovery
Method: (§1) The kinome-wide binding assay was performed by Eurofins Discovery using the scanMAX screening platform. More information can be found on the Eurofins Discovery Web site.

[1] = target: T2, ABL1(F317I)-nonphosphorylated (Homo sapiens, UniProt P00519, F317I); settings: read-out: Percent Control
T2 construct: purchased Eurofins Discovery (DiscoverX KINOMEscan scanMAX)
Method: as §1

[2] = target: T3, ABL1(H396P)-phosphorylated (Homo sapiens, UniProt P00519, H396P); settings: read-out: Percent Control
T3 construct: purchased Eurofins Discovery (DiscoverX KINOMEscan scanMAX)
Method: as §1

ACVR2A = target: T4, ACVR2A (Homo sapiens, UniProt P27037); settings: read-out: Percent Control
T4 construct: purchased Eurofins Discovery (DiscoverX KINOMEscan scanMAX)
Method: as §1

CAMK2A = target: T5, CAMK2A (Homo sapiens, UniProt Q9UQM7); settings: read-out: Percent Control
T5 construct: purchased Eurofins Discovery (DiscoverX KINOMEscan scanMAX)
Method: as §1

CAMK2G = target: T6, CAMK2G (Homo sapiens, UniProt Q13555); settings: read-out: Percent Control
T6 construct: purchased Eurofins Discovery (DiscoverX KINOMEscan scanMAX)
Method: as §1

CAMK4 = target: T7, CAMK4 (Homo sapiens, UniProt Q16566); settings: read-out: Percent Control
T7 construct: purchased Eurofins Discovery (DiscoverX KINOMEscan scanMAX)
Method: as §1

CDK3 = target: T8, CDK3 (Homo sapiens, UniProt Q00526); settings: read-out: Percent Control
T8 construct: purchased Eurofins Discovery (DiscoverX KINOMEscan scanMAX)
Method: as §1

CDK7 = target: T9, CDK7 (Homo sapiens, UniProt P50613); settings: read-out: Percent Control
T9 construct: purchased Eurofins Discovery (DiscoverX KINOMEscan scanMAX)
Method: as §1

CDK9 = target: T10, CDK9 (Homo sapiens, UniProt P50750); settings: read-out: Percent Control
T10 construct: purchased Eurofins Discovery (DiscoverX KINOMEscan scanMAX)
Method: as §1

DRAK2 = target: T11, DRAK2 (Homo sapiens, UniProt O94768); settings: read-out: Percent Control
T11 construct: purchased Eurofins Discovery (DiscoverX KINOMEscan scanMAX)
Method: as §1

ERK1 = target: T12, ERK1 (Homo sapiens, UniProt P27361); settings: read-out: Percent Control
T12 construct: purchased Eurofins Discovery (DiscoverX KINOMEscan scanMAX)
Method: as §1

ERK2 = target: T13, ERK2 (Homo sapiens, UniProt P28482); settings: read-out: Percent Control
T13 construct: purchased Eurofins Discovery (DiscoverX KINOMEscan scanMAX)
Method: as §1

FGFR2 = target: T14, FGFR2 (Homo sapiens, UniProt P21802); settings: read-out: Percent Control
T14 construct: purchased Eurofins Discovery (DiscoverX KINOMEscan scanMAX)
Method: as §1

FLT3(D835H) = target: T15, FLT3(D835H) (Homo sapiens, UniProt P36888, D835H); settings: read-out: Percent Control
T15 construct: purchased Eurofins Discovery (DiscoverX KINOMEscan scanMAX)
Method: as §1

HUNK = target: T16, HUNK (Homo sapiens, UniProt P57058); settings: read-out: Percent Control
T16 construct: purchased Eurofins Discovery (DiscoverX KINOMEscan scanMAX)
Method: as §1

IGF1R = target: T17, IGF1R (Homo sapiens, UniProt P08069); settings: read-out: Percent Control
T17 construct: purchased Eurofins Discovery (DiscoverX KINOMEscan scanMAX)
Method: as §1

LATS2 = target: T18, LATS2 (Homo sapiens, UniProt Q9NRM7); settings: read-out: Percent Control
T18 construct: purchased Eurofins Discovery (DiscoverX KINOMEscan scanMAX)
Method: as §1

MAP4K3 = target: T19, MAP4K3 (Homo sapiens, UniProt Q8IVH8); settings: read-out: Percent Control
T19 construct: purchased Eurofins Discovery (DiscoverX KINOMEscan scanMAX)
Method: as §1

MARK4 = target: T20, MARK4 (Homo sapiens, UniProt Q96L34); settings: read-out: Percent Control
T20 construct: purchased Eurofins Discovery (DiscoverX KINOMEscan scanMAX)
Method: as §1

MKK7 = target: T21, MKK7 (Homo sapiens, UniProt O14733); settings: read-out: Percent Control
T21 construct: purchased Eurofins Discovery (DiscoverX KINOMEscan scanMAX)
Method: as §1

NEK2 = target: T22, NEK2 (Homo sapiens, UniProt P51955); settings: read-out: Percent Control
T22 construct: purchased Eurofins Discovery (DiscoverX KINOMEscan scanMAX)
Method: as §1

NEK4 = target: T23, NEK4 (Homo sapiens, UniProt P51957); settings: read-out: Percent Control
T23 construct: purchased Eurofins Discovery (DiscoverX KINOMEscan scanMAX)
Method: as §1

PFPK5(P.falciparum) = target: T24, PFPK5(P.falciparum) (Plasmodium falciparum, UniProt P61075); settings: read-out: Percent Control
T24 construct: purchased Eurofins Discovery (DiscoverX KINOMEscan scanMAX)
Method: as §1

PIK3CA(E545K) = target: T25, PIK3CA(E545K) (Homo sapiens, UniProt P42336, E545K); settings: read-out: Percent Control
T25 construct: purchased Eurofins Discovery (DiscoverX KINOMEscan scanMAX)
Method: as §1

PIK3CA(H1047L) = target: T26, PIK3CA(H1047L) (Homo sapiens, UniProt P42336, H1047L); settings: read-out: Percent Control
T26 construct: purchased Eurofins Discovery (DiscoverX KINOMEscan scanMAX)
Method: as §1

PIK4CB = target: T27, PIK4CB (Homo sapiens, UniProt Q9UBF8); settings: read-out: Percent Control
T27 construct: purchased Eurofins Discovery (DiscoverX KINOMEscan scanMAX)
Method: as §1

PKMYT1 = target: T28, PKMYT1 (Homo sapiens, UniProt Q99640); settings: read-out: Percent Control
T28 construct: purchased Eurofins Discovery (DiscoverX KINOMEscan scanMAX)
Method: as §1

PRKCH = target: T29, PRKCH (Homo sapiens, UniProt P24723); settings: read-out: Percent Control
T29 construct: purchased Eurofins Discovery (DiscoverX KINOMEscan scanMAX)
Method: as §1

PRKD3 = target: T30, PRKD3 (Homo sapiens, UniProt O94806); settings: read-out: Percent Control
T30 construct: purchased Eurofins Discovery (DiscoverX KINOMEscan scanMAX)
Method: as §1

TEC = target: T31, TEC (Homo sapiens, UniProt P42680); settings: read-out: Percent Control
T31 construct: purchased Eurofins Discovery (DiscoverX KINOMEscan scanMAX)
Method: as §1

TGFBR1 = target: T32, TGFBR1 (Homo sapiens, UniProt P36897); settings: read-out: Percent Control
T32 construct: purchased Eurofins Discovery (DiscoverX KINOMEscan scanMAX)
Method: as §1

TSSK3 = target: T33, TSSK3 (Homo sapiens, UniProt Q96PN8); settings: read-out: Percent Control
T33 construct: purchased Eurofins Discovery (DiscoverX KINOMEscan scanMAX)
Method: as §1

YANK2 = target: T34, YANK2 (Homo sapiens, UniProt Q9NY57); settings: read-out: Percent Control
T34 construct: purchased Eurofins Discovery (DiscoverX KINOMEscan scanMAX)
Method: as §1

T28 sequence (Q99640 whole entry): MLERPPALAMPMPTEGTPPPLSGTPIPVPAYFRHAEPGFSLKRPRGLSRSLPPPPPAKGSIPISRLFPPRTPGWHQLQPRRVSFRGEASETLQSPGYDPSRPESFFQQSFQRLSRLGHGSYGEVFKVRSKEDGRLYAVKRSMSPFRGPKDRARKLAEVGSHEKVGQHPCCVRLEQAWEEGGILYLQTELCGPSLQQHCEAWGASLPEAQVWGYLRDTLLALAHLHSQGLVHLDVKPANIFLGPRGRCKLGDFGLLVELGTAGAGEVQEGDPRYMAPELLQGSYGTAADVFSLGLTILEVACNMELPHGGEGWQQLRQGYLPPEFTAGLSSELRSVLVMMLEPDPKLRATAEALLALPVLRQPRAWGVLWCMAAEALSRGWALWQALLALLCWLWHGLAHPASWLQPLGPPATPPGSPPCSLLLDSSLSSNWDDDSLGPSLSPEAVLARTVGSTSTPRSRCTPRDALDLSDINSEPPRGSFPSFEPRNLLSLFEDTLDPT
T8 sequence (Q00526 whole entry): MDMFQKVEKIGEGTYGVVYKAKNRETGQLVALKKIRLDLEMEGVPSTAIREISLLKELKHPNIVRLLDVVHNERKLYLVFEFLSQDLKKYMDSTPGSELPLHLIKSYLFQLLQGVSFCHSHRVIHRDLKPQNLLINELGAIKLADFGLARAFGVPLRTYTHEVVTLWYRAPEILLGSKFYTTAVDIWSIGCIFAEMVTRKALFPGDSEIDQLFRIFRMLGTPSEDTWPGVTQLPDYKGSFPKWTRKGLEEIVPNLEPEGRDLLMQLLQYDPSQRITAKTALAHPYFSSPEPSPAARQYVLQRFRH
T11 sequence (O94768 whole entry): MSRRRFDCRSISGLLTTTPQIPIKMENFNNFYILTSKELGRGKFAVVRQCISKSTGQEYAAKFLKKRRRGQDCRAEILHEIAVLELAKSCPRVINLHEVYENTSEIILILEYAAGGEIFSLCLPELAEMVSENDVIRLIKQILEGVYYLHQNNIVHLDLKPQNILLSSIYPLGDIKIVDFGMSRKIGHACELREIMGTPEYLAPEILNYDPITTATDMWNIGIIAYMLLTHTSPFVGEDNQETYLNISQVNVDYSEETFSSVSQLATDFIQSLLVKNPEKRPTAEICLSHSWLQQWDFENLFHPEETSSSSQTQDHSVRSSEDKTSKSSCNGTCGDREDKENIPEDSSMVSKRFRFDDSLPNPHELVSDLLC
T32 sequence (P36897 34-503): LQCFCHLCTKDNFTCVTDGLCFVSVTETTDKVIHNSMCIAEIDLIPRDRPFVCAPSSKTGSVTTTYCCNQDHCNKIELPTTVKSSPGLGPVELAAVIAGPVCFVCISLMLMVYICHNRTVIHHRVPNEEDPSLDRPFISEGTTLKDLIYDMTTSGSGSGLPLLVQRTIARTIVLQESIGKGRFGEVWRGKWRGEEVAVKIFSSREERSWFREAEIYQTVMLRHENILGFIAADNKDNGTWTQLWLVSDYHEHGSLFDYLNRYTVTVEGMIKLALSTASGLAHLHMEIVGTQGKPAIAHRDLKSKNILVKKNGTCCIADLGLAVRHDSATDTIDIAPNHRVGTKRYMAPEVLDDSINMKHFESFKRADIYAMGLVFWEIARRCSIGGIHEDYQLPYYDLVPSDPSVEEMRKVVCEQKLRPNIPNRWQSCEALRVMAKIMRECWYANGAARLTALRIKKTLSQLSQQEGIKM
T18 sequence (Q9NRM7 whole entry): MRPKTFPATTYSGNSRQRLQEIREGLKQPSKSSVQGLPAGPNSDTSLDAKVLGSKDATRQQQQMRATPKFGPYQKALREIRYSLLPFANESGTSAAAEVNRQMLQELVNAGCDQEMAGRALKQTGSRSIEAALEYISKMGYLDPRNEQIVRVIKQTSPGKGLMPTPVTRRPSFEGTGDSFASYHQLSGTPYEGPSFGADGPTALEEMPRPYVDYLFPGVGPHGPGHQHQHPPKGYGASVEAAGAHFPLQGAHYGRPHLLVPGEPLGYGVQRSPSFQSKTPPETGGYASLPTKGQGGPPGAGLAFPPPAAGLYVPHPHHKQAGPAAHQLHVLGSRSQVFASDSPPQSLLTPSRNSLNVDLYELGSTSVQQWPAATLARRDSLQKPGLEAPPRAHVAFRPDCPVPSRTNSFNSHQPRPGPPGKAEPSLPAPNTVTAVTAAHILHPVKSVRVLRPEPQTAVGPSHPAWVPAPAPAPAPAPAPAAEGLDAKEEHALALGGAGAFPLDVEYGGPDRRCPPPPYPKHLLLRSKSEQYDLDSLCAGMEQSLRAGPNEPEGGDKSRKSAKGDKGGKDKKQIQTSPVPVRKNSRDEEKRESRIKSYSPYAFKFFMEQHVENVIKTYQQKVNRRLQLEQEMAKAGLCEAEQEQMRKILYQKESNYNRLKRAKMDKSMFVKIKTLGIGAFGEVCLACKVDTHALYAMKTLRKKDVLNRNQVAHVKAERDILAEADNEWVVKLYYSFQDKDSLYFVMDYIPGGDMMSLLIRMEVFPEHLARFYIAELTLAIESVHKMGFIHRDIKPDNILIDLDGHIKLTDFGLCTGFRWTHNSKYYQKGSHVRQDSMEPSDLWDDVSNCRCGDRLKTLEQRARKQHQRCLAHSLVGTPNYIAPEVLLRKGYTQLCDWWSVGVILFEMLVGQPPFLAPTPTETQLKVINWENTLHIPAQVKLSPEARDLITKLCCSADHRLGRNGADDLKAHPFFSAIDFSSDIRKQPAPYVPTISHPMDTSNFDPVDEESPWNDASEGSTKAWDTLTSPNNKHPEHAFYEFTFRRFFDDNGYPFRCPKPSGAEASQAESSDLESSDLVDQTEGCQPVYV
T25 sequence (P42336 whole entry E545K): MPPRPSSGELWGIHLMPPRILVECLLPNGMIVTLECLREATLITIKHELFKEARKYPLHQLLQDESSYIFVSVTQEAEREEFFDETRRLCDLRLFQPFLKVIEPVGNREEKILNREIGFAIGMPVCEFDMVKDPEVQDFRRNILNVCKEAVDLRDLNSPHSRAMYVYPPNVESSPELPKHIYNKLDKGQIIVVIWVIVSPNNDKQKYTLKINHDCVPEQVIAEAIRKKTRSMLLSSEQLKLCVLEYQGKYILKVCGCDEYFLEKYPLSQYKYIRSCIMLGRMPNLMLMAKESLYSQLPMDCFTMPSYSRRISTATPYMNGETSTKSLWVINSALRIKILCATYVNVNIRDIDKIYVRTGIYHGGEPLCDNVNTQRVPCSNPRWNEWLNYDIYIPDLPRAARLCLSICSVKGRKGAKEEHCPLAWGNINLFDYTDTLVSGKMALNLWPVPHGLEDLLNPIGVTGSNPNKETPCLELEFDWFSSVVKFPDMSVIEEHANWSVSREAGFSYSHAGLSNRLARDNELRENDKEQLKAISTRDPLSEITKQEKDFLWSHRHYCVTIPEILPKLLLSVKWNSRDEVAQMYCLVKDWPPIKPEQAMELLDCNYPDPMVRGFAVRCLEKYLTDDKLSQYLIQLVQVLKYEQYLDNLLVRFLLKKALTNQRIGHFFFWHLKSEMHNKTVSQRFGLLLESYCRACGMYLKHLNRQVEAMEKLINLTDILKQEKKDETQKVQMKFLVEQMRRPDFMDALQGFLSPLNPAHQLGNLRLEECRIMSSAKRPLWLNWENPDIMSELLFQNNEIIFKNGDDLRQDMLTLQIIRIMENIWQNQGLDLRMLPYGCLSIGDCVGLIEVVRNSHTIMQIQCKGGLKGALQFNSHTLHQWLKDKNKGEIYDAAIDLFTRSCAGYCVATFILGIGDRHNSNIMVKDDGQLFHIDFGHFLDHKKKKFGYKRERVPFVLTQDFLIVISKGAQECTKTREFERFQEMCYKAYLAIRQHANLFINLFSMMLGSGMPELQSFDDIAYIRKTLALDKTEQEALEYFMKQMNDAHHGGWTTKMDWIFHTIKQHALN
T30 sequence (O94806 whole entry): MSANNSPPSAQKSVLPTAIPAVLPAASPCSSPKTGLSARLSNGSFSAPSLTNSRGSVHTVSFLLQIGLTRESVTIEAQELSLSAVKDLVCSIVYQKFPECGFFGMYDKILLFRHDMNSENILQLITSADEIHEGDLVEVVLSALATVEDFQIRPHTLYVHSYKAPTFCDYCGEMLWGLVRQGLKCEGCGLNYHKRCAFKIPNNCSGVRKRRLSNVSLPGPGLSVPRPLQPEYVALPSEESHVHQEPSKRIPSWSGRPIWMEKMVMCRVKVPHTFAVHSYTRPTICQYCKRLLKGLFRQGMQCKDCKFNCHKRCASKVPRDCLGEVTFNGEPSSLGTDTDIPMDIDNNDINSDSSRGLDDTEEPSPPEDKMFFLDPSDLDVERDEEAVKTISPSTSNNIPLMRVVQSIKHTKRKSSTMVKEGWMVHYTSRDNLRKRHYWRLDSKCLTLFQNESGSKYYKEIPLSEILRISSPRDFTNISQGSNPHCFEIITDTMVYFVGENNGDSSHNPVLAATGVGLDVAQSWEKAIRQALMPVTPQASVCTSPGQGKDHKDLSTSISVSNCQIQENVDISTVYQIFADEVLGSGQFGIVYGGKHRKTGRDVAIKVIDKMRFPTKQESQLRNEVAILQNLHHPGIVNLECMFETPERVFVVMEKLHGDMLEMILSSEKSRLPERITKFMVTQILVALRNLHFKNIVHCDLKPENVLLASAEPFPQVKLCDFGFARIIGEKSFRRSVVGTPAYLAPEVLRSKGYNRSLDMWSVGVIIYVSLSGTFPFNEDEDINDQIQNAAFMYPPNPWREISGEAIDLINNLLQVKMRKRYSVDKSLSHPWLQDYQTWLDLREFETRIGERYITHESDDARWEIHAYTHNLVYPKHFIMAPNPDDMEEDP
T13 sequence (P28482 whole entry): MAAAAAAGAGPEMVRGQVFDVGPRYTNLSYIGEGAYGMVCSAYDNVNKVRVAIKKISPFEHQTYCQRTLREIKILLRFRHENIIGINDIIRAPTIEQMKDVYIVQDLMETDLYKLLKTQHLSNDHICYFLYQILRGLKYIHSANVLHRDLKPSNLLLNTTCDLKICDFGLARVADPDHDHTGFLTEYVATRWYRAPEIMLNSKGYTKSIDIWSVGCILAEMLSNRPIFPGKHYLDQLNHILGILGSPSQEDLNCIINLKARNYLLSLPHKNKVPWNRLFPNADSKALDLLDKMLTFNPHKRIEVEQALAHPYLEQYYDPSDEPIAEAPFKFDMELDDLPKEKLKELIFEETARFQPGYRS

Cc1cc(Nc2ccc(F)c(CC3(C(=O)N4CCC(F)(CN5CCN(c6ccc(N7CCC(=O)NC7=O)cn6)CC5)CC4)CCN(Cc4cccc(Cl)c4F)CC3)n2)n[nH]1 [SK5527]
remaining binding at 1 µM (ABL1): 8.4%
remaining binding at 0.1 µM ([1]; 100 nM): 84%
remaining binding at 1 µM ([1]; 1000 nM): 74%
remaining binding at 0.1 µM ([2]; 100 nM): 88%
remaining binding at 1 µM ([2]; 1000 nM): 70%
remaining binding at 0.1 µM (ACVR2A; 100 nM): 100%
remaining binding at 1 µM (ACVR2A; 1000 nM): 98%
remaining binding at 0.1 µM (CAMK2A; 100 nM): 98%
remaining binding at 1 µM (CAMK2A; 1000 nM): 100%
remaining binding at 0.1 µM (CAMK2G; 100 nM): 100%
remaining binding at 1 µM (CAMK2G; 1000 nM): 100%
remaining binding at 0.1 µM (CAMK4; 100 nM): 100%
remaining binding at 1 µM (CAMK4; 1000 nM): 100%
remaining binding at 0.1 µM (CDK3; 100 nM): 83%
remaining binding at 1 µM (CDK3; 1000 nM): 87%
remaining binding at 0.1 µM (CDK7; 100 nM): 91%
remaining binding at 1 µM (CDK7; 1000 nM): 100%
remaining binding at 0.1 µM (CDK9; 100 nM): 90%
remaining binding at 1 µM (CDK9; 1000 nM): 97%
remaining binding at 0.1 µM (DRAK2; 100 nM): 100%
remaining binding at 1 µM (DRAK2; 1000 nM): 100%
remaining binding at 0.1 µM (ERK1; 100 nM): 94%
remaining binding at 1 µM (ERK1; 1000 nM): 94%
remaining binding at 0.1 µM (ERK2; 100 nM): 100%
remaining binding at 1 µM (ERK2; 1000 nM): 97%
remaining binding at 0.1 µM (FGFR2; 100 nM): 100%
remaining binding at 1 µM (FGFR2; 1000 nM): 90%
remaining binding at 0.1 µM (FLT3(D835H); 100 nM): 89%
remaining binding at 1 µM (FLT3(D835H); 1000 nM): 54%
remaining binding at 0.1 µM (HUNK; 100 nM): 93%
remaining binding at 1 µM (HUNK; 1000 nM): 100%
remaining binding at 0.1 µM (IGF1R; 100 nM): 87%
remaining binding at 1 µM (IGF1R; 1000 nM): 89%
remaining binding at 0.1 µM (LATS2; 100 nM): 69%
remaining binding at 1 µM (LATS2; 1000 nM): 43%
remaining binding at 0.1 µM (MAP4K3; 100 nM): 82%
remaining binding at 1 µM (MAP4K3; 1000 nM): 72%
remaining binding at 0.1 µM (MARK4; 100 nM): 100%
remaining binding at 1 µM (MARK4; 1000 nM): 100%
remaining binding at 0.1 µM (MKK7; 100 nM): 100%
remaining binding at 1 µM (MKK7; 1000 nM): 54%
remaining binding at 0.1 µM (NEK2; 100 nM): 90%
remaining binding at 1 µM (NEK2; 1000 nM): 91%
remaining binding at 0.1 µM (NEK4; 100 nM): 72%
remaining binding at 1 µM (NEK4; 1000 nM): 65%
remaining binding at 0.1 µM (PFPK5(P.falciparum); 100 nM): 89%
remaining binding at 1 µM (PFPK5(P.falciparum); 1000 nM): 80%
remaining binding at 0.1 µM (PIK3CA(E545K); 100 nM): 93%
remaining binding at 1 µM (PIK3CA(E545K); 1000 nM): 71%
remaining binding at 0.1 µM (PIK3CA(H1047L); 100 nM): 63%
remaining binding at 1 µM (PIK3CA(H1047L); 1000 nM): 100%
remaining binding at 0.1 µM (PIK4CB; 100 nM): 73%
remaining binding at 1 µM (PIK4CB; 1000 nM): 65%
remaining binding at 0.1 µM (PKMYT1; 100 nM): 81%
remaining binding at 1 µM (PKMYT1; 1000 nM): 58%
remaining binding at 0.1 µM (PRKCH; 100 nM): 96%
remaining binding at 1 µM (PRKCH; 1000 nM): 100%
remaining binding at 0.1 µM (PRKD3; 100 nM): 100%
remaining binding at 1 µM (PRKD3; 1000 nM): 100%
remaining binding at 0.1 µM (TEC; 100 nM): 91%
remaining binding at 1 µM (TEC; 1000 nM): 69%
remaining binding at 0.1 µM (TGFBR1; 100 nM): 100%
remaining binding at 1 µM (TGFBR1; 1000 nM): 100%
remaining binding at 0.1 µM (TSSK3; 100 nM): 95%
remaining binding at 1 µM (TSSK3; 1000 nM): 99%
remaining binding at 0.1 µM (YANK2; 100 nM): 100%
remaining binding at 1 µM (YANK2; 1000 nM): 100%
